Measured values taken from paper PMC12454493, “Insight on novel sulfamoylphenyl pyrazole derivatives as anticancer carbonic anhydrase inhibitors” (Molecular Diversity, 2024).
Several values for one entry are separate records, joined by “and”; a condition that tells them apart may be missing. Identical values can stand only once.

Legend:
[1] = test system: HT29; assay: NCI-60 one-dose SRB screen (Colon Cancer); format: cell-based; conditions: Homo sapiens, HT-29, single dose 10 µM, 48 h, read-out: Growth inhibition percent (GI %)
[2] = test system: SW-620; assay: NCI-60 one-dose SRB screen (Colon Cancer); format: cell-based; conditions: Homo sapiens, single dose 10 µM, 48 h, read-out: Growth inhibition percent (GI %)
[3] = test system: COLO 205; assay: NCI-60 one-dose SRB screen (Colon Cancer); format: cell-based; conditions: Homo sapiens, single dose 10 µM, 48 h, read-out: Growth inhibition percent (GI %)
[4] = test system: HCT-15; assay: NCI-60 one-dose SRB screen (Colon Cancer); format: cell-based; conditions: Homo sapiens, single dose 10 µM, 48 h, read-out: Growth inhibition percent (GI %)
[5] = test system: HCC-2998; assay: NCI-60 one-dose SRB screen (Colon Cancer); format: cell-based; conditions: Homo sapiens, single dose 10 µM, 48 h, read-out: Growth inhibition percent (GI %)
[6] = test system: HCT-116; assay: NCI-60 one-dose SRB screen (Colon Cancer); format: cell-based; conditions: Homo sapiens, single dose 10 µM, 48 h, read-out: Growth inhibition percent (GI %)
[7] = test system: KM12; assay: NCI-60 one-dose SRB screen (Colon Cancer); format: cell-based; conditions: Homo sapiens, single dose 10 µM, 48 h, read-out: Growth inhibition percent (GI %)
[8] = test system: HS 578T; assay: NCI-60 one-dose SRB screen (Breast Cancer); format: cell-based; conditions: Homo sapiens, single dose 10 µM, 48 h, read-out: Growth inhibition percent (GI %)
[9] = test system: MCF-7; assay: NCI-60 one-dose SRB screen (Breast Cancer); format: cell-based; conditions: Homo sapiens, MCF7, single dose 10 µM, 48 h, read-out: Growth inhibition percent (GI %)
[10] = test system: MDA-MB-231/ATCC; assay: NCI-60 one-dose SRB screen (Breast Cancer); format: cell-based; conditions: Homo sapiens, single dose 10 µM, 48 h, read-out: Growth inhibition percent (GI %)
[11] = test system: T-47D; assay: NCI-60 one-dose SRB screen (Breast Cancer); format: cell-based; conditions: Homo sapiens, T47D, single dose 10 µM, 48 h, read-out: Growth inhibition percent (GI %)
[12] = test system: SK-OV-3; assay: NCI-60 one-dose SRB screen (Ovarian cancer); format: cell-based; conditions: Homo sapiens, single dose 10 µM, 48 h, read-out: Growth inhibition percent (GI %)
[13] = test system: IGROV1; assay: NCI-60 one-dose SRB screen (Ovarian cancer); format: cell-based; conditions: Homo sapiens, IGROV-1, single dose 10 µM, 48 h, read-out: Growth inhibition percent (GI %)
[14] = test system: OVCAR-8; assay: NCI-60 one-dose SRB screen (Ovarian cancer); format: cell-based; conditions: Homo sapiens, single dose 10 µM, 48 h, read-out: Growth inhibition percent (GI %)
[15] = test system: OVCAR-4; assay: NCI-60 one-dose SRB screen (Ovarian cancer); format: cell-based; conditions: Homo sapiens, single dose 10 µM, 48 h, read-out: Growth inhibition percent (GI %)
[16] = test system: OVCAR-5; assay: NCI-60 one-dose SRB screen (Ovarian cancer); format: cell-based; conditions: Homo sapiens, single dose 10 µM, 48 h, read-out: Growth inhibition percent (GI %)
[17] = test system: OVCAR-3; assay: NCI-60 one-dose SRB screen (Ovarian cancer); format: cell-based; conditions: Homo sapiens, single dose 10 µM, 48 h, read-out: Growth inhibition percent (GI %)
[18] = test system: NCI-H460; assay: NCI-60 one-dose SRB screen (Non-Small Cell Lung Cancer); format: cell-based; conditions: Homo sapiens, single dose 10 µM, 48 h, read-out: Growth inhibition percent (GI %)
[19] = test system: NCI-H226; assay: as above; format: cell-based; conditions: Homo sapiens, single dose 10 µM, 48 h, read-out: Growth inhibition percent (GI %)
[20] = test system: NCI-H23; assay: as above; format: cell-based; conditions: Homo sapiens, single dose 10 µM, 48 h, read-out: Growth inhibition percent (GI %)
[21] = test system: NCI-H322M; assay: as above; format: cell-based; conditions: Homo sapiens, single dose 10 µM, 48 h, read-out: Growth inhibition percent (GI %)
[22] = test system: NCI-H522; assay: as above; format: cell-based; conditions: Homo sapiens, single dose 10 µM, 48 h, read-out: Growth inhibition percent (GI %)
[23] = test system: HOP-92; assay: as above; format: cell-based; conditions: Homo sapiens, single dose 10 µM, 48 h, read-out: Growth inhibition percent (GI %)
[24] = test system: A549/ATCC; assay: as above; format: cell-based; conditions: Homo sapiens, single dose 10 µM, 48 h, read-out: Growth inhibition percent (GI %)
[25] = test system: EKVX; assay: as above; format: cell-based; conditions: Homo sapiens, single dose 10 µM, 48 h, read-out: Growth inhibition percent (GI %)
[26] = test system: HOP-62; assay: as above; format: cell-based; conditions: Homo sapiens, single dose 10 µM, 48 h, read-out: Growth inhibition percent (GI %)
[27] = test system: UACC-257; assay: NCI-60 one-dose SRB screen (Melanoma); format: cell-based; conditions: Homo sapiens, single dose 10 µM, 48 h, read-out: Growth inhibition percent (GI %)
[28] = test system: UACC-62; assay: NCI-60 one-dose SRB screen (Melanoma); format: cell-based; conditions: Homo sapiens, single dose 10 µM, 48 h, read-out: Growth inhibition percent (GI %)
[29] = test system: SK-MEL-5; assay: NCI-60 one-dose SRB screen (Melanoma); format: cell-based; conditions: Homo sapiens, single dose 10 µM, 48 h, read-out: Growth inhibition percent (GI %)
[30] = test system: LOX IMVI; assay: NCI-60 one-dose SRB screen (Melanoma); format: cell-based; conditions: Homo sapiens, single dose 10 µM, 48 h, read-out: Growth inhibition percent (GI %)
[31] = test system: SK-MEL-28; assay: NCI-60 one-dose SRB screen (Melanoma); format: cell-based; conditions: Homo sapiens, single dose 10 µM, 48 h, read-out: Growth inhibition percent (GI %)
[32] = test system: MDA-MB-435; assay: NCI-60 one-dose SRB screen (Melanoma); format: cell-based; conditions: Homo sapiens, single dose 10 µM, 48 h, read-out: Growth inhibition percent (GI %)
[33] = test system: M14; assay: NCI-60 one-dose SRB screen (Melanoma); format: cell-based; conditions: Homo sapiens, single dose 10 µM, 48 h, read-out: Growth inhibition percent (GI %)
[34] = test system: MALME-3M; assay: NCI-60 one-dose SRB screen (Melanoma); format: cell-based; conditions: Homo sapiens, single dose 10 µM, 48 h, read-out: Growth inhibition percent (GI %)
[35] = test system: PC-3; assay: NCI-60 one-dose SRB screen (Prostate Cancer); format: cell-based; conditions: Homo sapiens, single dose 10 µM, 48 h, read-out: Growth inhibition percent (GI %)
[36] = test system: DU-145; assay: NCI-60 one-dose SRB screen (Prostate Cancer); format: cell-based; conditions: Homo sapiens, single dose 10 µM, 48 h, read-out: Growth inhibition percent (GI %)
[37] = target: hCA IX (Homo sapiens, UniProt Q16790); assay: CA inhibitory activity, spectrophotometric p-NPA assay; format: biochemical; conditions: p-NPA substrate, pH 7.5, 25 °C, triplicate; read-out: IC50 (µM) ± SD hCA IX
[38] = test system: CCRF-CEM; assay: NCI-60 one-dose SRB screen (Leukemia); format: cell-based; conditions: Homo sapiens, single dose 10 µM, 48 h, read-out: Growth inhibition percent (GI %)
[39] = test system: SR; assay: NCI-60 one-dose SRB screen (Leukemia); format: cell-based; conditions: Homo sapiens, single dose 10 µM, 48 h, read-out: Growth inhibition percent (GI %)
[40] = test system: MOLT-4; assay: NCI-60 one-dose SRB screen (Leukemia); format: cell-based; conditions: Homo sapiens, single dose 10 µM, 48 h, read-out: Growth inhibition percent (GI %)
[41] = test system: K-562; assay: NCI-60 one-dose SRB screen (Leukemia); format: cell-based; conditions: Homo sapiens, K562, single dose 10 µM, 48 h, read-out: Growth inhibition percent (GI %)
[42] = test system: RPMI-8226; assay: NCI-60 one-dose SRB screen (Leukemia); format: cell-based; conditions: Homo sapiens, single dose 10 µM, 48 h, read-out: Growth inhibition percent (GI %)
[43] = test system: HL-60(TB); assay: NCI-60 one-dose SRB screen (Leukemia); format: cell-based; conditions: Homo sapiens, single dose 10 µM, 48 h, read-out: Growth inhibition percent (GI %)

COc1ccc(-c2nn(-c3ccc(S(N)(=O)=O)cc3)cc2C(=O)OCC(=O)Nc2ccc(S(N)(=O)=O)cc2)cc1 [Compound 4c, 2-Oxo-2-[(4-sulfamoylphenyl)amino] ethyl 3-(4-methoxyphenyl)-1-(4-sulfamoylphenyl)-1H-pyrazole-4-carboxylate]
37.5%: inhibition at 10 µM [6]
13.9%: inhibition at 10 µM [43]
0.17 µM and 0.175 µM: IC50 [37]
9.19%: inhibition at 10 µM [42]
43.3%: inhibition at 10 µM [33]
9.61%: inhibition at 10 µM [41]
< 5%: inhibition at 10 µM [1] | inhibition at 10 µM [2] | inhibition at 10 µM [3] | inhibition at 10 µM [4] | inhibition at 10 µM [5] | inhibition at 10 µM [7] | inhibition at 10 µM [8] | inhibition at 10 µM [10] | inhibition at 10 µM [11] | inhibition at 10 µM [12] | inhibition at 10 µM [13] | inhibition at 10 µM [14] | inhibition at 10 µM [15] | inhibition at 10 µM [16] | inhibition at 10 µM [17] | inhibition at 10 µM [18] | inhibition at 10 µM [19] | inhibition at 10 µM [20] | inhibition at 10 µM [21] | inhibition at 10 µM [22] | inhibition at 10 µM [23] | inhibition at 10 µM [24] | inhibition at 10 µM [25] | inhibition at 10 µM [26] | inhibition at 10 µM [27] | inhibition at 10 µM [28] | inhibition at 10 µM [29] | inhibition at 10 µM [30] | inhibition at 10 µM [31] | inhibition at 10 µM [32] | inhibition at 10 µM [34] | inhibition at 10 µM [36] | inhibition at 10 µM [38] | inhibition at 10 µM [39] | inhibition at 10 µM [40]
8.81%: inhibition at 10 µM [35]
8.77%: inhibition at 10 µM [9]
